# Data from patent publication US20100022559A1, “BISOXIMES AS FUNGICIDES” (BAYER CROPSCIENCE AG, priority 2006, published 2010).
# Test: logP determination by HPLC on a reversed-phase column (C 18), EEC Directive 79/831 Annex V.A8
# Assay type: physicochemical
# Settings: method marked [a] in Table 1
# Method: The stated logP values were determined in accordance with EEC Directive 79/831 Annex V.A8 by HPLC (high performance liquid chromatography) on a reversed-phase column (C 18). Temperature: 43° C.
row,logP,Structure (SMILES)
1,2.95^[a],CCC1=NOC(CON=C(c2cccc(C)n2)C2CC2)(CON=C(c2cccc(C)n2)C2CC2)C1 (stereo not drawn) [compound 652]
2,3.98^[a],Cc1cccc(C(=NOCC2(CON=C(c3cccc(C)n3)C3CC3)CC(C(C)(C)C)=NO2)C2CC2)n1 (mixture of isomers) [compound 651]
3,4.54^[a],Cc1cccc(C(=NOCC2(CON=C(c3cccc(C)n3)C3CC3)CC(c3cccc(Cl)c3)=NO2)C2CC2)n1 (stereo not drawn) [compound 655]
4,3.23^[a],CCC(=NOCC(C)CON=C(CC)c1cc(C)cc(C)n1)c1cc(C)cc(C)n1 (mixture of isomers) [Compound 572]

# Same assay, conditions: method marked [b] in Table 1
row,logP,Structure (SMILES)
1,1.22[b],CC(=NOCC(O)CON=C(C)c1cc(C)cc(C)n1)c1cc(C)cc(C)n1 (stereo not drawn) [compound 560]
2,2.06^[b],COCc1nc(/C(N)=N/OCc2cccc(CO/N=C(\N)c3nc(COC)c(C)c(COC)n3)c2)nc(COC)c1C [compound 713]
3,3.25^[b],Cc1nc(/C(N)=N/OCc2ccccc2CO/N=C(\N)c2nc(C)c3c(n2)CCCC3)nc2c1CCCC2 [compound 707]
4,6.58^[b],CCCC(=NOCC1(CON=C(CCC)c2cccc(C)n2)CC(c2ccc(Cl)cc2)=NO1)c1cccc(C)n1 (stereo not drawn) [compound 622]
5,7.36^[b],CC(=NOCC(C)CON=C(C)c1ccc2cccc(C)c2n1)c1ccc2cccc(C)c2n1 (stereo not drawn) [compound 687]
6,4.92^[b],CC(=NOCC1(CON=C(C)c2ccc(C)c(C)n2)CCCC1)c1ccc(C)c(C)n1 [Compound 588]
7,2.54^[b],C=C(CON=Cc1cccc(C)n1)CON=C(C)c1cccc(C)n1 [compound 663]
8,4.86^[b] v(isomer B),"CC(=NOCCCCCCON=C(C)c1nc(C)c(C)s1)c1cccc(C)n1 (single isomer, unassigned) [compound 539]"
9,4.3^[b],C/C(=N\OCC1(CO/N=C(\C)c2ccc(C)c(C)n2)CC(c2ccccc2Cl)=NO1)c1ccc(C)c(C)n1 [compound 634]
10,4.04^[b],CCC1=NOC(CON=C(CC)c2ccc(C)cn2)(CON=C(CC)c2cccc(C)n2)C1 (racemic) [compound 607]
11,3.13^[b],CC(=NOc1ncnc(ON=C(C)c2cccc(C)n2)c1F)c1cccc(C)n1 [compound 727]
12,5.84^[b],CCC(=NOCC1(CON=C(CC)c2cccc(C)n2)CC(c2cccc(Cl)c2)=NO1)c1cccc(C)n1 (stereo not drawn) [compound 613]
13,2.66^[b],CC(=NOCC1(CON=C(C)c2cc(C)cc(C)n2)CC(CC(C)C)=NO1)c1cc(C)cc(C)n1 (stereo not drawn) [compound 641]
14,2.48^[b],CC(C)=CC1=NOC(CON=C(C)c2cc(C)cc(C)n2)(CON=C(C)c2cc(C)cc(C)n2)C1 (stereo not drawn) [compound 647]
15,4.57^[b],CC(=NOCC(C)(C)CON=C(c1cccc(C)n1)C(C)C)c1cccc(C)n1 [compound 547]
16,1.68^[b],C(=NOCCON=Cc1ccccn1)c1ccccn1 [compound 665]
17,6.22^[b],CON=C(c1ccccc1)c1cccc(C(C)=NOCC(C)CON=C(C)c2cccc(C)n2)n1 (mixture of isomers) [Compound 693]

row,Structure (SMILES),logP
1,CC(=NOC(=O)N(C)C(=O)ON=C(C)c1cccc(C)n1)c1cccc(C)n1 [compound 744],2.57^[b]

# Same assay, conditions: method marked [c] in Table 1
row,logP,Structure (SMILES)
1,3.68^[c],CC(=NOCC(O)CON=C(C)c1cc(C)cc(C)n1)c1cc(C)cc(C)n1 (stereo not drawn) [compound 560]
2,7.36^[c],CC(=NOCC(C)CON=C(C)c1ccc2cccc(C)c2n1)c1ccc2cccc(C)c2n1 (stereo not drawn) [compound 687]
3,7.36^[c],CC(=NOCC1(CON=C(C)c2ccc(C)c(C)n2)CCCC1)c1ccc(C)c(C)n1 [Compound 588]

# Same assay, conditions: method marker [a] (footnote not shown); isomer A / isomer B / isomer mixture as noted in the cell
row,logP,Structure (SMILES)
1,3.57^a],CC(=NOCC(C)CON=C(C)c1ccnc(C)n1)c1ccnc(C)n1 (stereo not drawn) [compound 168]
2,5.99^[a],CC(=NOCCCON=C(C)c1cccc(Br)n1)c1cccc(Br)n1 [compound 80]
3,4.44^[a],CCC(=NOCCCON=C(CC)c1cccc(C)n1)c1cccc(C)n1 [Compound 90]
4,3.35^[a],CC(=NOCCCON=C(C)c1nc(C)cs1)c1cccc(C)n1 (mixture of isomers) [Compound 16]
5,3.28^[a] (isomer A),"Cc1cccc(C(=NOCC(C)CON=C(c2cccc(C)n2)C2CC2)C2CC2)n1 (single isomer, unassigned) [compound 162]"
6,6.21^[a],CCc1cccc(C(C)=NOCC(C)CON=C(C)c2cccc(CC)n2)n1 (stereo not drawn) [Compound 179]
7,7.36^[a],CC(=NOCCCON=C(C)c1cccc(C(C)C)n1)c1cccc(C(C)C)n1 [compound 230]
8,1.50^[a],CC(=NOCC(C)CON=C(C)c1ccc(C)nc1)c1ccc(C)nc1 (mixture of isomers) [compound 233]
9,4.69^[a],CC(=NOCCCON=C(C)c1csc(Cl)n1)c1csc(Cl)n1 (mixture of isomers) [compound 232]
10,6.33^[a],CC(=NOCC(C)CON=C(C)c1cc(-c2ccccc2)ccn1)c1cc(-c2ccccc2)ccn1 (stereo not drawn) [Compound 119]
11,4.83^[a] (isomer B),"CCCC(=NOCCCON=C(CCC)c1ncccc1C)c1ncccc1C (single isomer, unassigned) [compound 98]"
12,1.54^a],CC(=NOCCCON=C(C)c1cncc(C)c1)c1cncc(C)c1 [compound 163]
13,5.92^[a] (isomer A),"Cc1cccc(C(CC(C)C)=NOCCCON=C(CC(C)C)c2cccc(C)n2)n1 (single isomer, unassigned) [compound 114]"

# Same assay, conditions: method marker [b]; isomer A / isomer B / isomer mixture as noted in the cell
row,logP,Structure (SMILES)
1,3.85^[b],CC(=NOCCCCCON=C(C)c1cccc(C)n1)c1cccc(C)n1 [Compound 11]
2,6.89^[b],C=C(CON=C(C)c1cccc(CCC)n1)CON=C(C)c1cccc(CCC)n1 [Compound 62]
3,4.38^[b],CCC(=NOCC(C)CON=C(CC)c1nc(C)c(C)c(C)n1)c1nc(C)c(C)c(C)n1 (stereo not drawn) [Compound 254]
4,3.10^[b],CC(=NOCCCON=C(C)c1sc(C)nc1C)c1sc(C)nc1C [compound 54]
5,4.40^[b] (isomer A),"C=C(CON=C(C)c1cccc(C)n1)CON=C(CC(C)C)c1ncccc1C (single isomer, unassigned) [compound 155]"
6,1.83^[b],C=C(CO/N=C(\N)c1nc(COC)c(C)c(COC)n1)CO/N=C(\N)c1nc(COC)c(C)c(COC)n1 [compound 44]
7,2.13^[b],C=C(CON=C(C)c1cccc(C)n1)CON=C(N)c1nc(C)c(C)c(C)n1 [compound 191]
8,2.67^[b],CC(=NOCCCON=C(C)c1ccccn1)c1ccccn1 [compound 31]
9,4.46^[b],CC(=NOCON=C(C)c1nc(C)c(C)s1)c1nc(C)c(C)s1 [compound 126]
10,2.04^[b],COc1ccc(C)nc1C(C)=NOCC(C)CON=C(C)c1nc(C)ccc1OC (stereo not drawn) [Compound 251]
11,1.37^[b],C=C(CON=C(C)c1ccc(C)nc1)CON=C(C)c1ccc(C)nc1 [compound 22]
12,2.7^[b],C=C(CON=C(N)c1cc(C)cc(C)n1)CON=C(N)c1cc(C)cc(C)n1 [compound 127]
13,4.84^[b] (isomer B),"C=C(CON=C(C)c1cccs1)CON=C(C)c1cccs1 (single isomer, unassigned) [compound 77]"
14,2.48^[b),C=C(CON=C(C)c1cccc(C)n1)CON=C(N)c1ncc(F)cc1F [compound 242]

# Same assay, conditions: method marker [c] (footnote not shown)
row,logP,Structure (SMILES)
1,4.47^[c],CC(=NOCCCON=C(C)c1nc(C)cs1)c1cccc(C)n1 (mixture of isomers) [Compound 16]

# Same assay, conditions: value marked [a]
row,logP,Structure (SMILES)
1,4.9^[a],C=C(CON=C(SCCC)c1cccc(C)n1)CON=C(SCCC)c1cccc(C)n1 [compound 819]
2,7.36^[a],CC(=NOCC(C)(C)CON=C(C)c1cccc(C2CC2)n1)c1cccc(C2CC2)n1 [compound 814]
3,6.25^[a],CC(=O)OCC#Cc1cc(C)nc(C(C)=NOCC(C)CON=C(C)c2cc(C#CCOC(C)=O)cc(C)n2)c1 (stereo not drawn) [compound 875]
4,7.36^[a],CC(=NOCC1(CON=C(C)c2cccc(C3CC3)n2)CC1)c1cccc(C2CC2)n1 [Compound 848]

# Same assay, conditions: value marked [b]
row,logP,Structure (SMILES)
1,5.84^[b],CC(=NOCCCCCCON=C(C)c1ccccc1Cl)c1cccc(C)n1 [compound 391]
2,2.18^[b],CC(=NOCCCCON=C(C)c1cccc(C)n1)c1cccnc1 [compound 384]
3,4.80^[b],COc1cccc(C(C)=NOCC(C)CON=C(C)c2cccc(C)n2)c1 (stereo not drawn) [Compound 495]
4,4.91^[b] (isomer A),"C=CCCC(=NOCCCCCCON=C(C)c1cccc(C)n1)c1ncccc1C (single isomer, unassigned) [compound 523]"
5,4.92^[b] (isomer B),"CC(=NOC/C=C/CON=C(C)c1nc(C)c(C)s1)c1nc(C)c(C)s1 (single isomer, unassigned) [compound 767]"
6,1.36^[b],CC(=NOCC(O)CON=C(C)c1ccc(C)c(C)n1)c1ccc(C)c(C)n1 (stereo not drawn) [compound 323]
7,6.25^[b],CC(=O)OCC#Cc1cc(C)nc(C(C)=NOCC(C)CON=C(C)c2cc(C#CCOC(C)=O)cc(C)n2)c1 (stereo not drawn) [compound 875]
8,2.04^[b],CC(=NOCC(C)CON=C(C)c1cccc(C)n1)c1ccncc1 (stereo not drawn) [compound 493]
9,3.02^[b],CC(=NOCCCCON=C(C)c1cccc(C)n1)c1cnccn1 [compound 512]
10,1.68^[b] (isomer A),"COCc1nc(C(N)=NOC/C=C/CON=C(N)c2nc(COC)c(C)c(COC)n2)nc(COC)c1C (single isomer, unassigned) [compound 768]"
11,3.11^[b],COc1cc(C)nc(C(C)=NOCCCCON=C(C)c2cccc(C)n2)c1 [compound 449]
12,4.57^[b],COc1ccc(C(C)=NOCC(C)(C)CON=C(C)c2cccc(C)n2)cc1OC [compound 414]
13,4.86^[b],CC(=NOCC(C)CON=C(C)c1nc(C)cc(C(F)(F)F)n1)c1nc(C)cc(C(F)(F)F)n1 (stereo not drawn) [compound 273]
14,3.02^[b],CC(=NOCC(C)(C)CON=C(C)c1nccc(C)n1)c1cccc(C)n1 [compound 511]
15,5.78^[b],CC(=NOCCCCCCON=C(C)c1cc2ccccc2o1)c1cccc(C)n1 [compound 393]
16,2.55^[b],C=C(CON=C(C)c1cccc(C)n1)CON=C(C)c1cc(C)cc(C)n1 [Compound 474]
17,6.03^[b](isomer B),"CC(=NOCCCCCCON=C(c1cccc(C)n1)C(C)C)c1cccc(C)n1 (single isomer, unassigned) [compound 527]"
18,5.42^[b],CC(=NOCC(C)(C)CON=C(C)c1cccc(C)n1)c1ccccc1 [compound 419]

# Same assay, conditions: value marked [c]
row,logP,Structure (SMILES)
1,7.05^[c],CC(=NOC[Si](C)(C)CON=C(C)c1ccc(C)c(C)n1)c1ccc(C)c(C)n1 [Compound 870]
2,3.81^[c],CC(=NOCC(O)CON=C(C)c1ccc(C)c(C)n1)c1ccc(C)c(C)n1 (stereo not drawn) [compound 323]
3,6.31^[c],CC(=O)OCC#Cc1cc(C)nc(C(C)=NOCC(C)CON=C(C)c2cc(C#CCOC(C)=O)cc(C)n2)c1 (stereo not drawn) [compound 875]
